Measurements: US10246712B2, “Genetic or pharmacological reduction of PERK enhances cortical- and hippocampus-dependent cognitive function” (Carmel-Haifa University Economic Corp. Ltd, priority 2015, dated 2019)

Legend:
PERK [1] = assay type: in vivo, mouse; conditions: CA1 punches after 100 nM infusion into CA1; vs vehicle
Source text: Animals were anesthetized under 2% isoflurane using an isoflurane table top unit (HME109, Highland Medical Equipment). Under aseptic conditions, a rodent stereotaxic apparatus (Kopf Stereotaxic Alignment System Model 1900) with continuous 1% isoflurane anesthesia was used. For CA1 infusion cannula was implanted bilaterally into the CA1 region (from the bregma: −1.94 mm AP, ±1.0 mm ML, −1.0 mm DV). The implanted cannula was cemented on the skull. Each cannula was fitted with a 28 gauge dummy cannula that extended 0.1 mm beyond the tip of the guide cannula to prevent blockage of the guide cannula. After cannulation, mice were allowed to recover for 7 days before infusion of PERK inhibitor or vehicle and behavior. On conditioning day, randomly assigned mice were infused with 100 nM PERK inhibitor GSK2606414 (Axten et al., 2012) dissolved in dimethyl sulfoxide (DMSO) and further diluted in saline to a final DMSO concentration of 0.5%, via a 28-gauge infusion cannula connected by polyethylene (PE 20) tubing to a 10 μL Hamilton microsyringe (Hamilton Company). The infusion cannula protruded 0.25 mm beyond the guide cannula. For CA1 administration, infusion volume of 1 μl of 100 nM GSK2606414 or vehicle was delivered using a Harvard PHD2000 syringe pump (Harvard Apparatus) over the course of 1 min (at a rate of 1 μL/min). […]

PERK [2] = biological target: T1, PERK (Mus musculus, UniProt Q9Z2B5); assay type: in vivo
T1 construct: from tissue; host or cells: CA1 region of the hippocampus of C57BL/6 mice, in vivo
T1 sequence (Q9Z2B5 29-1114): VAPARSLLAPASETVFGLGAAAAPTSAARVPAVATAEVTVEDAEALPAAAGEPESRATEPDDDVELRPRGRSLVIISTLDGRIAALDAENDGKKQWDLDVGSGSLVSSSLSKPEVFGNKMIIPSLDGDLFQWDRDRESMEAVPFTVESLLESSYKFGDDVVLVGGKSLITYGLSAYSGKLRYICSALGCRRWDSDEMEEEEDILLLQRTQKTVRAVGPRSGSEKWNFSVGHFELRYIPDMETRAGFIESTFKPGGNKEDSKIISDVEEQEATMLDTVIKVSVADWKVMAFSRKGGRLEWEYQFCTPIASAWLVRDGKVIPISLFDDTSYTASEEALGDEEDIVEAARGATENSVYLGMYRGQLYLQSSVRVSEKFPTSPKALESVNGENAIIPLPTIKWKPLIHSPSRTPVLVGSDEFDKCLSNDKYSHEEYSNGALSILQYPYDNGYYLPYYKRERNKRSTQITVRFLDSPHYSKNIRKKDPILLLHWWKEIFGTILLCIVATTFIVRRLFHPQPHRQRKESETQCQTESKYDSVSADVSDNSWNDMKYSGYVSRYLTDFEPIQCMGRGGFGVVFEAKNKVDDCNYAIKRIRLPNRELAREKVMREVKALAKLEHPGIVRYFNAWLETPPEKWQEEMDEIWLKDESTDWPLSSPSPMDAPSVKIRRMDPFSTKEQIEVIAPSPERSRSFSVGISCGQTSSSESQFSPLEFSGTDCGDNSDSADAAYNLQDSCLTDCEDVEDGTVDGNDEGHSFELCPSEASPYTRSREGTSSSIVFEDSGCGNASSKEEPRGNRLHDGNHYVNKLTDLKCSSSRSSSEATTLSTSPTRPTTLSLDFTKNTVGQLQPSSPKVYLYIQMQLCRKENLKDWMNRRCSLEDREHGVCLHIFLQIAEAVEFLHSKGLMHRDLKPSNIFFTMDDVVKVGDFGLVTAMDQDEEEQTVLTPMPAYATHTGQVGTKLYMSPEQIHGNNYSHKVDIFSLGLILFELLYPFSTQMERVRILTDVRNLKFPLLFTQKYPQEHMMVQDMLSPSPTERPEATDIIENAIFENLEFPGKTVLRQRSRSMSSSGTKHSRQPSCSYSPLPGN
Source text: Animals were anesthetized under 2% isoflurane using an isoflurane table top unit (HME109, Highland Medical Equipment). Under aseptic conditions, a rodent stereotaxic apparatus (Kopf Stereotaxic Alignment System Model 1900) with continuous 1% isoflurane anesthesia was used. For CA1 infusion cannula was implanted bilaterally into the CA1 region (from the bregma: −1.94 mm AP, ±1.0 mm ML, −1.0 mm DV). The implanted cannula was cemented on the skull. Each cannula was fitted with a 28 gauge dummy cannula that extended 0.1 mm beyond the tip of the guide cannula to prevent blockage of the guide cannula. After cannulation, mice were allowed to recover for 7 days before infusion of PERK inhibitor or vehicle and behavior. On conditioning day, randomly assigned mice were infused with 100 nM PERK inhibitor GSK2606414 (Axten et al., 2012) dissolved in dimethyl sulfoxide (DMSO) and further diluted in saline to a final DMSO concentration of 0.5%, via a 28-gauge infusion cannula connected by polyethylene (PE 20) tubing to a 10 μL Hamilton microsyringe (Hamilton Company). The infusion cannula protruded 0.25 mm beyond the guide cannula. For CA1 administration, infusion volume of 1 μl of 100 nM GSK2606414 or vehicle was delivered using a Harvard PHD2000 syringe pump (Harvard Apparatus) over the course of 1 min (at a rate of 1 μL/min). After infusion, the injection cannula was kept in the guide cannula for an additional minute to minimize dragging of infused solutes along the injection tract. Locations of cannula were verified in 30 μm coronal sections.
Model chambers measuring 25×25×25 cm internally (Panlab, Harvard Apparatus) were located inside a larger, insulated plastic cabinet that excluded external light and noise. For the trace fear conditioning protocol, mice were placed in a chamber (with light [20 W bulb] and a 16 bar metal grid floor) for 120 s, after which the mice received a 2.9 kHz tone, applied for 20 s at 80 dB (conditioned stimulus) and a 0.5 mA footshock applied for 2 s (unconditioned stimulus) 20 s following the end of the conditioned stimulus. This protocol was repeated 5 times, where each tone-shock presentation was separated by a 2-minute interval. After administration of the last shock, animals remained in the chamber for 2 minutes before they were taken back to the home cage. The chambers were cleaned with 10% ethanol between successive sets of mice. Animals from control and treatment groups were randomized between the 4 different chambers.

ATF4 = experiment: Immunoblot of ATF4 protein levels in rat insular cortex (IC); assay type: in vivo; conditions: 1 μl, 100 nM injection to the IC; n=16; data not shown
Experimental: The rats were cannulated as described in Barki-Harrington et al. (2009). Briefly, the rats were anesthetized by administration of equithesin (0.3 ml/100 g), comprising 2.12% (w/v) MgSO4, 10% (v/v) ethanol, 39.1% (v/v) propyleneglycol, 0.98% (w/v) sodium pentobarbital, and 4.2% (w/v) chloral hydrate. They were restrained in a stereotactic frame (Steolting Europe, Dublin-Ireland) and stainless steel guide cannulae (23-gauge) were bilaterally implanted into the insular cortex, angled at (with reference to bregma), anteroposterior=+1.2 mm, lateral±5.5 mm, and ventral 5.0 mm (1 mm ahead of injecting cannula). Two skull screws were inserted into the skull, and acrylic dental cement was applied to secure the cannulae in position. […]
At the end of the behavioral procedure, the brains were removed, and snap-frozen in liquid nitrogen. […] Protein content was determined with the BCA Protein Assay Kit (GE Healthcare). […]
Samples were prepared in SDS sample buffer, subjected to 7.5-10% SDS-PAGE and Western blot analysis. […] The immunoblots were quantified with a CCD camera and Quantity One software (Bio-Rad, USA). Each sample was measured relative to the background. Phosphorylation levels were calculated as the ratio between chemiluminescence values of the antibody directed against the phosphoproteins and those of the antibody directed against the phosphorylation state independent forms of the proteins.

[3] = 100 nM bilateral infusion to CA1 50 min prior to acquisition, 48 h after conditioning, vs vehicle

## Cn1cc(-c2ccc3c(c2)CCN3C(=O)Cc2cccc(C(F)(F)F)c2)c2c(N)ncnc21 [GSK2606414, 7-methyl-5-(1-{[3-(trifluoromethyl)phenyl]acetyl}-2,3-dihydro-1H-indol-5-yl)-7H-pyrrolo[2,3-d]pyrimidin-4-amine]
PERK [1]
  total PERK levels: no effect
PERK [2]; [3]
  freezing during tone presentation (tone memory): enhanced freezing
  freezing in the trace interval following the tone (trace memory): enhanced freezing
PERK [2]; 100 nM bilateral infusion to CA1, 24 h after conditioning, vs vehicle
  context memory (freezing): not altered
PERK [2]; 100 nM infusion to CA1 at the time of conditioning
  extinction (cue and trace): no effect
ATF4
  reduction in ATF4 protein levels: 30%
